Data on 37 compounds can be found in patent US7135466B2 (Kirin Beer Kabushiki Kaisha, priority 1999, dated 2006).

Molecules are shown by their SMILES. pIC50: −log10 of the molar value.

One may read the pIC50 as −log10 of the IC50, conventionally taken in molar units. A word on the inhibition: it is how much of the control response was suppressed.

For one experiment, the target named is T1, c-kit (Homo sapiens, UniProt P10721).
T1 construct: MO7e (human megakaryocytic leukemia cell line) which had been arrested for 20 hr; endogenous in cells; host or cells: MO7e human megakaryocytic leukemia cell line
T1 sequence (P10721 26-976): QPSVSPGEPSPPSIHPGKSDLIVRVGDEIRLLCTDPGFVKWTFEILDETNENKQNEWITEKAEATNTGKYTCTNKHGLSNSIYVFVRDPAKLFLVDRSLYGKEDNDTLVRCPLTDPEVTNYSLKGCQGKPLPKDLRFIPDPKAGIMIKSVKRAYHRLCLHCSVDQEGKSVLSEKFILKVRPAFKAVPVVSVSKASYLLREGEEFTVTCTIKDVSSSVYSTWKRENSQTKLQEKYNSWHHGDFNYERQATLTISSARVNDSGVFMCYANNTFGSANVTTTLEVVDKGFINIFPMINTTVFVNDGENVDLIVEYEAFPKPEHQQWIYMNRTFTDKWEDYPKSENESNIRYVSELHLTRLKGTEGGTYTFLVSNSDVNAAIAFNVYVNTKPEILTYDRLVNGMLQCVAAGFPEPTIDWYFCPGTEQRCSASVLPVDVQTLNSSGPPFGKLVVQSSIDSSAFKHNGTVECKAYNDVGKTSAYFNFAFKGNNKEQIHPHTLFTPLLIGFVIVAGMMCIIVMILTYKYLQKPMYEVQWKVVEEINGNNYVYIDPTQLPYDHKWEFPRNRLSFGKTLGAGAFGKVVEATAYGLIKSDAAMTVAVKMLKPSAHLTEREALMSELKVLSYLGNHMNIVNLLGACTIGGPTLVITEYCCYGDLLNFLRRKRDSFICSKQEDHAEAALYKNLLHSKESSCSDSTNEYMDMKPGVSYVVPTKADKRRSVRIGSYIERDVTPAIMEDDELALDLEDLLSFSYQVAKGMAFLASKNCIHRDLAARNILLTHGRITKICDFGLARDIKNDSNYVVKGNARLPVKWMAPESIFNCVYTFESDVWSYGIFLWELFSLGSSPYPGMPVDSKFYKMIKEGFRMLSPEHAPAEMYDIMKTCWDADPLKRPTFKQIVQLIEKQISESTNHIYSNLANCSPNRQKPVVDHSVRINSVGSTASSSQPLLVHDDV
In words: Inhibitory activity against c-kit autophosphorylation (MO7e cells, h-SCF). Particulars: MO7e cells, h-SCF stimulation; read-out: c-kit IC50. The experiment is classed as cell-based. Summed up:
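MO7e human megakaryocytic leukemia cells, arrested 20 hr, treated with compound 1 hr, then stimulated with 50 ng/ml h-SCF for 5 min and lysed. Lysates captured on immobilized anti-phosphotyrosine antibody, detected with anti-c-kit primary and HRP secondary antibody; absorbance at 450 nm.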
For `COc1cc2nccc(Oc3ccc(NC(=S)NC(=O)c4ccccc4Br)c(F)c3)c2cc1OC` [Example 907, N-(2-Bromobenzoyl)-N′-{4-[(6,7-dimethoxy-4-quinolyl)oxy]-2-fluorophenyl}thiourea], the pIC50 is 6.24. Regarding `COc1cc2nccc(Oc3ccc(NC(=S)NC(=O)c4ccccc4)cc3F)c2cc1OC` [Example 911, N-Benzoyl-N′-{4-[(6,7-dimethoxy-4-quinolyl)oxy]-3-fluorophenyl}thiourea], the negative logarithm of the IC50 (pIC50) is 6.30.

Consider `COc1cc2nccc(Oc3ccc(NC(=S)NC(=O)c4ccccc4C)cc3F)c2cc1OC` [Example 912, N-{4-[(6,7-Dimethoxy-4-quinolyl)oxy]-3-fluorophenyl}-N′-(2-methylbenzoyl)thiourea], for which the pIC50 is 6.30. Turning to `COc1cc2nccc(Oc3ccc(NC(=S)NC(=O)c4ccccc4Cl)cc3F)c2cc1OC` [Example 913, N-(2-Chlorobenzoyl)-N′-{4-[(6,7-dimethoxy-4-quinolyl)oxy]-3-fluorophenyl}thiourea], the pIC50 was 6.25. As for `COc1cc2nccc(Oc3ccc(NC(=S)NC(=O)c4ccccc4Br)cc3F)c2cc1OC` [Example 914, N-(2-Bromobenzoyl)-N′-{4-[(6,7-dimethoxy-4-quinolyl)oxy]-3-fluorophenyl}thiourea], the pIC50 was 6.52. Take `COc1cc2nccc(Oc3ccc(NC(=S)NC(=O)c4ccccc4)cc3Cl)c2cc1OC` [Example 918, N-Benzoyl-N′-{3-chloro-4-[(6,7-dimethoxy-4-quinolyl)oxy]phenyl}thiourea]: the negative logarithm of the IC50 (pIC50) is 6.26.

On to `COc1cc2ncnc(Oc3ccc(NC(=S)NC(=O)c4ccccc4Cl)cc3Cl)c2cc1OC` [Example 920, N-(2-Chlorobenzoyl)-N′-{3-chloro-4-[(6,7-dimethoxy-4-quinazolinyl)oxy]phenyl}thiourea], for which the pIC50 is 6.35.

For `COc1cc2nccc(Oc3ccc(NC(=S)NC(=O)c4ccccc4Br)cc3Cl)c2cc1OC` [Example 922, N-(2-Bromobenzoyl)-N′-{3-chloro-4-[(6,7-dimethoxy-4-quinolyl)oxy]phenyl}thiourea], the pIC50 is 6.44. Regarding `COc1cc2nccc(Oc3ccc(NC(=S)NC(=O)c4ccccc4C(F)(F)F)cc3Cl)c2cc1OC` [Example 924, N-{3-Chloro-4-[(6,7-dimethoxy-4-quinolyl)oxy]phenyl}-N′-[2-(trifluoromethyl)benzoyl]thiourea], the pIC50 is 6.36. As for `COc1cc2ncnc(Oc3ccc(NC(=S)NC(=O)c4ccccc4Cl)cc3)c2cc1OC` [Example 928, N-(2-Chlorobenzoyl)-N′-{4-[(6,7-dimethoxy-4-quinazolinyl)oxy]phenyl}thiourea], the negative-log IC50 (pIC50) is 6.54.

`COc1cc2nccc(Oc3ccc(NC(=S)NC(=O)c4cccc(F)c4)cc3)c2cc1OC` [Example 931, N-{4-[(6,7-Dimethoxy-4-quinolyl)oxy]phenyl}-N′-(3-fluorobenzoyl)thiourea]: the negative logarithm of the IC50 (pIC50) is 6.29.

Regarding `COc1cc2nccc(Oc3ccc(NC(=S)NC(=O)c4cccc(Cl)c4)cc3)c2cc1OC` [Example 932, N-(3-Chlorobenzoyl)-N′-{4-[(6,7-dimethoxy-4-quinolyl)oxy]phenyl}thiourea], the pIC50 was 6.68. Consider `COc1cccc(C(=O)NC(=S)Nc2ccc(Oc3ccnc4cc(OC)c(OC)cc34)cc2)c1` [Example 933, N-{4-[(6,7-Dimethoxy-4-quinolyl)oxy]phenyl}-N′-(3-methoxybenzoyl)thiourea], for which the pIC50 was 6.31. Take `COc1cc2nccc(Oc3ccc(NC(=S)NC(=O)c4cccc(C(F)(F)F)c4)cc3)c2cc1OC` [Example 934, N-{4-[(6,7-Dimethoxy-4-quinolyl)oxy]phenyl}-N′-[3-(trifluoromethyl)benzoyl]thiourea]: the negative-log IC50 (pIC50) was 6.84. For the compound `COc1cc2nccc(Oc3ccc(NC(=S)NC(=O)c4cccc(Br)c4)cc3)c2cc1OC` [Example 935, N-(3-Bromobenzoyl)-N′-{4-[(6,7-dimethoxy-4-quinolyl)oxy]phenyl}thiourea], the pIC50 was 6.78. Turning to `COc1cc2nccc(Oc3ccc(NC(=S)NC(=O)c4cccc(C)c4)c(F)c3)c2cc1OC` [Example 936, N-{4-[(6,7-Dimethoxy-4-quinolyl)oxy]-2-fluorophenyl}-N′-(3-methylbenzoyl)thiourea], the pIC50 was 6.37.

On to `COc1cc2nccc(Oc3ccc(NC(=S)NC(=O)c4cccc(F)c4)c(F)c3)c2cc1OC` [Example 937, N-{4-[(6,7-Dimethoxy-4-quinolyl)oxy]-2-fluorophenyl}-N′-(3-fluorobenzoyl)thiourea], for which the negative-log IC50 (pIC50) was 6.09.

On to `COc1cc2nccc(Oc3ccc(NC(=S)NC(=O)c4cccc(Cl)c4)c(F)c3)c2cc1OC` [Example 938, N-(3-Chlorobenzoyl)-N′-{4-[(6,7-dimethoxy-4-quinolyl)oxy]-2-fluorophenyl}thiourea], for which the pIC50 is 6.27. On the same count and under the same terms, next, `COc1cccc(C(=O)NC(=S)Nc2ccc(Oc3ccnc4cc(OC)c(OC)cc34)cc2F)c1` [Example 939, N-{4-[(6,7-Dimethoxy-4-quinolyl)oxy]-2-fluorophenyl}-N′-(3-methoxybenzoyl)thiourea]: 6.66. With `COc1cc2nccc(Oc3ccc(NC(=S)NC(=O)c4cccc(Br)c4)c(F)c3)c2cc1OC` [Example 940, N-(3-Bromobenzoyl)-N′-{4-[(6,7-dimethoxy-4-quinolyl)oxy]-2-fluorophenyl}thiourea], the pIC50 is 6.53. As for `COc1cc2nccc(Oc3ccc(NC(=S)NC(=O)c4cccc(C)c4)cc3F)c2cc1OC` [Example 941, N-{4-[(6,7-Dimethoxy-4-quinolyl)oxy]-3-fluorophenyl}-N′-(3-methylbenzoyl)thiourea], the pIC50 is 6.84. As for `COc1cc2nccc(Oc3ccc(NC(=S)NC(=O)c4cccc(F)c4)cc3F)c2cc1OC` [Example 942, N-{4-[(6,7-Dimethoxy-4-quinolyl)oxy]-3-fluorophenyl}-N′-(3-fluorobenzoyl)thiourea], the pIC50 was 6.47. On the same count and under the same terms, the result for `COc1cc2nccc(Oc3ccc(NC(=S)NC(=O)c4cccc(Cl)c4)cc3F)c2cc1OC` [Example 943, N-(3-Chlorobenzoyl)-N′-{4-[(6,7-dimethoxy-4-quinolyl)oxy]-3-fluorophenyl}thiourea] reads 6.87. Consider `COc1cccc(C(=O)NC(=S)Nc2ccc(Oc3ccnc4cc(OC)c(OC)cc34)c(F)c2)c1` [Example 944, N-{4-[(6,7-Dimethoxy-4-quinolyl)oxy]3-fluorophenyl}-N′-(3-methoxybenzoyl)thiourea], for which the pIC50 is 6.85.

`COc1cc2nccc(Oc3ccc(NC(=S)NC(=O)c4cccc(C(F)(F)F)c4)cc3F)c2cc1OC` [Example 945, N-{4-[(6,7-Dimethoxy-4-quinolyl)oxy]-3-fluorophenyl}-N′-[3-(trifluoromethyl)benzoyl]thiourea]: the pIC50 was 6.88. The same measure, in the same setting: the result for `COc1cc2nccc(Oc3ccc(NC(=S)NC(=O)c4cccc(Br)c4)cc3F)c2cc1OC` [Example 946, N-(3-Bromobenzoyl)-N′-{4-[(6,7-dimethoxy-4-quinolyl)oxy]-3-fluorophenyl}thiourea] reads 6.85; that for `COc1cc2nccc(Oc3ccc(NC(=S)NC(=O)c4cccc(C)c4)cc3Cl)c2cc1OC` [Example 947, N-{3-Chloro-4-[(67-dimethoxy-4-quinolyl)oxy]phenyl}-N′-(3-methylbenzoyl)thiourea], 6.43; that for `COc1cc2nccc(Oc3ccc(NC(=S)NC(=O)c4cccc(F)c4)cc3Cl)c2cc1OC` [Example 948, N-{3-Chloro-4-[(67-dimethoxy-4-quinolyl)oxy]phenyl}-N′-(3-fluorobenzoyl)thiourea], 6.08. `COc1cc2nccc(Oc3ccc(NC(=S)NC(=O)c4cccc(Cl)c4)cc3Cl)c2cc1OC` [Example 949]: the negative logarithm of the IC50 (pIC50) is 6.60.

The same experiment, now with this note: Mo7e, figure in parentheses in −( ); at 1000 nM.
Turning to `COc1cc2nccc(Oc3ccc(NC(=S)NC(=O)c4ccccc4OC)c(F)c3)c2cc1OC` [Example 909, N-{4-[(6,7-Dimethoxy-4-quinolyl)oxy]-2-fluorophenyl}-N′-(2-methoxybenzoyl)thiourea], the inhibition at 1 µM is 32%. On to `COc1cc2nccc(Oc3ccc(NC(=S)NC(=O)c4ccccc4C(F)(F)F)c(F)c3)c2cc1OC` [Example 910, N-{4-[(6,7-Dimethoxy-4-quinolyl)oxy]-2-fluorophenyl}-N′-[2-(trifluoromethyl)benzoyl]thiourea], for which the inhibition at 1 µM was 38%. Regarding `COc1cc2nccc(Oc3ccc(NC(=S)NC(=O)c4ccccc4OC)cc3F)c2cc1OC` [Example 916, N-{4-[(6,7-Dimethoxy-4-quinolyl)oxy]-3-fluorophenyl}-N′-(2-methoxybenzoyl)thiourea], the inhibition at 1 µM stood at 16%. Turning to `COc1cc2nccc(Oc3ccc(NC(=S)NC(=O)c4ccccc4C)cc3Cl)c2cc1OC` [Example 919, N-{3-Chloro-4-[(6,7-dimethoxy-4-quinolyl)oxy]phenyl}-N′-(2-methylbenzoyl)thiourea], the inhibition at 1 µM worked out at 11%. Still for that read-out and setting: next, `COc1cc2nccc(Oc3ccc(NC(=S)NC(=O)c4ccccc4F)cc3Cl)c2cc1OC` [Example 921, N-{3-Chloro-4-[(6,7-dimethoxy-4-quinolyl)oxy]phenyl}-N′-(2-fluorobenzoyl)thiourea]: 42%.

As for `COc1cc2nccc(Oc3ccc(NC(=S)NC(=O)c4ccccc4OC)cc3Cl)c2cc1OC` [Example 923, N-{3-Chloro-4-[(6,7-dimethoxy-4-quinolyl)oxy]phenyl}-N′-(2-methoxybenzoyl)thiourea], the inhibition at 1 µM came out at 25%. As for `COc1cc2ncnc(Oc3ccc(NC(=S)NC(=O)c4ccccc4)cc3)c2cc1OC` [Example 926, N-Benzoyl-N′-{4-[(6,7-dimethoxy-4-quinazolinyl)oxy]phenyl}thiourea], the inhibition at 1 µM was determined as 31%. Consider `COc1cc2ncnc(Oc3ccc(NC(=S)NC(=O)c4ccccc4OC)cc3)c2cc1OC` [Example 929, N-{4-[(6,7-Dimethoxy-4-quinazolinyl)oxy]phenyl}-N′-(2-methoxybenzoyl)thiourea], for which the inhibition at 1 µM stood at 21%.
